“And” between values parts separate entries of the source, which are not always exact repeats. Equal values may be shown once. Read-outs that look alike come from different tables or passages of the source.
Assays:
human OCTN1 (hOCTN1) = biological target: T1, human OCTN1 (hOCTN1) (Homo sapiens, UniProt Q9H015); assay: Uptake of the extended cocktail by HEK293 cells overexpressing hOCTN1; format: in vitro ADME; settings: Fig. 6
T1 construct: expressed in transfected cells
T1 sequence (Q9H015 1-551): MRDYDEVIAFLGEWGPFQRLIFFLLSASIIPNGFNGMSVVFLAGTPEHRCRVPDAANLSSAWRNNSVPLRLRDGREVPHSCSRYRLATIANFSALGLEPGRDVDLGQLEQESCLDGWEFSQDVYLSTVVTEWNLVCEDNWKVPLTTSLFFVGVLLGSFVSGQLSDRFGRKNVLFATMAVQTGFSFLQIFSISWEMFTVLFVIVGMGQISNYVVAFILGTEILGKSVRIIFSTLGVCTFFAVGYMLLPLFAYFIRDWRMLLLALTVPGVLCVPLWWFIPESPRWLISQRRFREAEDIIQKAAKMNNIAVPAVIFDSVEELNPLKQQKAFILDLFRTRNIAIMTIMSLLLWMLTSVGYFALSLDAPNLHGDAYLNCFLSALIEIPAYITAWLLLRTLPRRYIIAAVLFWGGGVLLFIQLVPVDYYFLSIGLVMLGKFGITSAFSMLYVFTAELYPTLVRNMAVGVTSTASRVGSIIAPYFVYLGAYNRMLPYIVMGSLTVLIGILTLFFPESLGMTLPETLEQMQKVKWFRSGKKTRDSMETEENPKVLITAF

human OCTN2 (hOCTN2) = biological target: T2, human OCTN2 (hOCTN2) (Homo sapiens, UniProt O76082); assay: Uptake of the extended cocktail by HEK293 cells overexpressing hOCTN2; format: in vitro ADME; settings: Fig. 6
T2 construct: expressed in transfected cells
T2 sequence (O76082 1-557): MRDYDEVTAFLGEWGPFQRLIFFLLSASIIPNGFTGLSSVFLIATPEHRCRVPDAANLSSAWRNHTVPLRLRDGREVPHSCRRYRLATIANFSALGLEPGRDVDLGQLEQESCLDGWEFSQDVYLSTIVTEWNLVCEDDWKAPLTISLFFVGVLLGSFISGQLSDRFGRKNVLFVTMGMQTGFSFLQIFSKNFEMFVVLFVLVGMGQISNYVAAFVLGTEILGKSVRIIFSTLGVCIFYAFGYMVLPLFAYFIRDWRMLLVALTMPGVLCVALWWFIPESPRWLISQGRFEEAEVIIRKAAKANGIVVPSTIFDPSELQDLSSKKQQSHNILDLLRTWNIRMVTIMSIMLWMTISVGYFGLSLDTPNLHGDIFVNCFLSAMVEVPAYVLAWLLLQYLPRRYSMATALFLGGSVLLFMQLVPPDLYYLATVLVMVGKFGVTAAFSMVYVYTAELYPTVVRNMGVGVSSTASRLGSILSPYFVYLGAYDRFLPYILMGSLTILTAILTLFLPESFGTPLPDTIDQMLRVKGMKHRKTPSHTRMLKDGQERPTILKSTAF

OCT1 [1] = biological target: T3, OCT1 (Homo sapiens, UniProt O15245); assay: Uptake of the cocktail by HEK293 cells overexpressing human OCT1
T3 sequence (O15245 1-554): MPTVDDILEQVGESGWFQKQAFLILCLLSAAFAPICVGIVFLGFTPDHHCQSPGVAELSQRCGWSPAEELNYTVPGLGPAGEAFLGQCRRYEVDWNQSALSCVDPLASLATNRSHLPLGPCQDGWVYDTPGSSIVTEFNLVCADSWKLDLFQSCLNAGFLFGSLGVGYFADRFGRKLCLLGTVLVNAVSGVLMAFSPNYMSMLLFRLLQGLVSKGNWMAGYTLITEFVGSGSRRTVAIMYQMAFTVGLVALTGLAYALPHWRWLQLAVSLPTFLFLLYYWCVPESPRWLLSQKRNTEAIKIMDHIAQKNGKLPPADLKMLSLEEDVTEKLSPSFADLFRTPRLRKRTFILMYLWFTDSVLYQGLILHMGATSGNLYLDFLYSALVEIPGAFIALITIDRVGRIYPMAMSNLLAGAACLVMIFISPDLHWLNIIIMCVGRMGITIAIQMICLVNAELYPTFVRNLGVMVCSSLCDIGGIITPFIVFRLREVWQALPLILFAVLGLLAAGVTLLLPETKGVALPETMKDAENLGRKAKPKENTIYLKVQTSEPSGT
Experimental: (§1) Significance was calculated using Mann–Whitney U test. n = 5–8 independent experiments.

mouse OCT1 [2] = biological target: T4, mouse OCT1 (Mus musculus, UniProt O08966); assay: Uptake of the cocktail by HEK293 cells overexpressing mouse Oct1; settings: fold change to the negative control, n = 12
T4 sequence (O08966 1-556): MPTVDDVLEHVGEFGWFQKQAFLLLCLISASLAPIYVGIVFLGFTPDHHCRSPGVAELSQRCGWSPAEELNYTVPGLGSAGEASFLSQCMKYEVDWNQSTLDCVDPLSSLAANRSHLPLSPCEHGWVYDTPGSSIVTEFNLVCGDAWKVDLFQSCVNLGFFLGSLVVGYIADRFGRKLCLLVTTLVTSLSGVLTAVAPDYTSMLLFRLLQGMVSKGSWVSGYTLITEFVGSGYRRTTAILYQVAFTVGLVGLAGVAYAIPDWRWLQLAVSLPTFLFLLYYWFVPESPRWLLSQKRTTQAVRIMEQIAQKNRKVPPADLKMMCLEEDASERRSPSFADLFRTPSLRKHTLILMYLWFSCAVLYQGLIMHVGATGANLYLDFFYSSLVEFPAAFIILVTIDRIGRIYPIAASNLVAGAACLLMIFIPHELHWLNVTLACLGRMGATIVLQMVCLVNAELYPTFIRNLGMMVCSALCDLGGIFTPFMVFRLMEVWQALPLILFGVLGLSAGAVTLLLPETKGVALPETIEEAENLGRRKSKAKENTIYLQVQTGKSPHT
Experimental: as §1

[3] = Pharmacokinetic parameters used for estimating the potential for DDIs; format: in vivo, human; settings: for Imax, portal: Iin,max=Imax+Fa×ka×D/Qh, Qh 97 L/h, Fa 1, Imax for fenoterol and ipratropium; for ka: first-order absorption rate constant, calculated manually from available pharmacokinetic parameters
Experimental: (§2) Ka was calculated manually based on available pharmacokinetic parameters.

human OCT2 (hOCT2) = biological target: T5, human OCT2 (hOCT2) (Homo sapiens, UniProt O15244); assay: Uptake of the extended cocktail by HEK293 cells overexpressing hOCT2; format: in vitro ADME; settings: Fig. 6
T5 construct: expressed in transfected cells
T5 sequence (O15244 1-555): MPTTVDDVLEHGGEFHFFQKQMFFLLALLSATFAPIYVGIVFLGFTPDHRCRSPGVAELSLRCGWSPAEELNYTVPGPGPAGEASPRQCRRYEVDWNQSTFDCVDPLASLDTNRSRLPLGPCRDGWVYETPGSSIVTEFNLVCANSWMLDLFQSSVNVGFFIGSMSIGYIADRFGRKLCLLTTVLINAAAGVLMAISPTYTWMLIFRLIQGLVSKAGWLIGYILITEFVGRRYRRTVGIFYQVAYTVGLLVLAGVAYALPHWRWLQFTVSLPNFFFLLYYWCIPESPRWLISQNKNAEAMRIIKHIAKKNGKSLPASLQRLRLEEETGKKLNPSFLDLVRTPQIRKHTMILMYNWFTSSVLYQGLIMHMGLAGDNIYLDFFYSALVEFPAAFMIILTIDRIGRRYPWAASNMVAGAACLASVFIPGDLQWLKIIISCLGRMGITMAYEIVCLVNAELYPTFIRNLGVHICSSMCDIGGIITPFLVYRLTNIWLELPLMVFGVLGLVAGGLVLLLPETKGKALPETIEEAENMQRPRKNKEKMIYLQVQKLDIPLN

human OCT1 (hOCT1) [4] = biological target: T6, human OCT1 (hOCT1) (Homo sapiens, UniProt O15245)
T6 sequence (O15245 1-554): T3 sequence (O15245 1-554)

mOct1 = system: mOct1; parameters: method as in ref column References of Table 2 (Morse et al, 2020; Jensen et al, 2020; Meyer et al, 2022); settings: literature values; References of Table 2 (Morse et al, 2020; Jensen et al, 2020; Meyer et al, 2022); cited from earlier work
[5] = cited from earlier work; for cmax = Imax: dose and route as in Supplemental Table 4, ref Hardman, 2018, fenoterol Tzvetkov et al; for cmax = Imax / fraction unbound: ipratropium Zhang et al, 2023; for fraction unbound: fraction unbound in plasma, ref Hardman, 2018, Lombardo et al (2018), fenoterol Tzvetkov et al; for tmax: p.o., ref Hardman, 2018
OCT1 [6] = biological target: T3, OCT1; assay: DDI risk R calculated from IC50 at human OCT1; settings: R=1+fup×Iin,max/IC50, cutoff R ≥ 1.1
human OCT1 (hOCT1) [7] = biological target: T6, human OCT1 (hOCT1); parameters: expressed in transfected cells; empty vector control pcDNA5; method as in ref column References of Table 2 (Tzvetkov et al, 2018; Morse et al, 2020; Jensen et al, 2020; Meyer et al, 2019, 2022; Wittern et al, 2024 and own unpublished data; Elsby et al, 2017); settings: literature values; References of Table 2 (Tzvetkov et al, 2018; Morse et al, 2020; Jensen et al, 2020; Meyer et al, 2019, 2022; Wittern et al, 2024 and own unpublished data; Elsby et al, 2017); cited from earlier work
human OCT1 (hOCT1) [8] = biological target: T6, human OCT1 (hOCT1); assay: Inhibition of OCT1-mediated uptake of the cocktail substrates in HEK293 cells overexpressing human OCT1; settings: for IC50: human OCT1, mean ± SD
mouse OCT1 [9] = biological target: T4, mouse OCT1
Experimental: Therefore, the calculation method used for hepatic uptake transporters such as organic anion transporting polypeptide (OATP) 1B1 and OATP1B3 was also applied for OCT1.
as §2

OCT1 [10] = settings: read-out: inhibitory potency for metformin uptake via OCT1; substrate metformin; ref Ahlin et al, 2011; Panfen et al, 2019; cited from earlier work

C[N+](C)(C)C[C@H](O)CC(=O)[O-] [L-carnitine]
transport by OCTN1 (human OCTN1 (hOCTN1)): transported both L-carnitine and L-ergothioneine
transport by OCTN2 (human OCTN2 (hOCTN2)): transported only L-carnitine

O=C(O[C@H]1C[C@H]2CC[C@@H](C1)[N+]21CCCC1)C(O)(c1ccccc1)c1ccccc1 [Trospium, trospium]
human OCT1 uptake [fold change to pcDNA5] (OCT1 [1]; cocktail, fold change to the negative control, n = 12): 28.6 fold change to pcDNA5
transport by OCT1 (OCT1 [1]; extended cocktail, Fig. 6): transported only by OCT1 and OCT2
mouse Oct1 uptake [fold change to pcDNA5] (mouse OCT1 [2]): 26.9 fold change to pcDNA5
Imax, portal [3]: 89.63 ng/mL
ka [3]: 0.273 h⁻¹
k el ([3]; human, in vivo, po, read-out: ke (converted)): 1.94e-05 s⁻¹
I max, portal, u ([3]; unbound maximum inhibitor concentration at the inlet of the liver): 0.08 µM
transport by OCT2 (human OCT2 (hOCT2)): transported only by OCT1 and OCT2
IC50 (human OCT1 (hOCT1) [4]): 12.4 µM and 8.14 µM
Km (mOct1): 1.81 µM
cmax = Imax [5]: 5.20 ng/mL
fraction unbound [5]: 0.33
tmax [5]: 6.7 h
t1/2 ([5]; ref Hardman, 2018, fenoterol Tzvetkov et al): 9.9 h
DDI risk R, victim drug fenoterol (OCT1 [6]): 1.00
DDI risk R, victim drug ipratropium (OCT1 [6]): 1.01
DDI risk R, victim drug metformin (OCT1 [6]): 1.01
DDI risk R, victim drug methylnaltrexone (OCT1 [6]): 1.01
DDI risk R, victim drug salbutamol (OCT1 [6]): 1.01
DDI risk R, victim drug sumatriptan (OCT1 [6]): 1.00
DDI risk R, victim drug zolmitriptan (OCT1 [6]): 1.01
Km (human OCT1 (hOCT1) [7]): 16.1 µM
IC50 (human OCT1 (hOCT1) [8]; IC50 for inhibition of fenoterol uptake, substrate (victim) fenoterol 0.5 μM in cocktail): 15.8 ± 1.87 µM
IC50 (human OCT1 (hOCT1) [8]; IC50 for inhibition of ipratropium uptake, substrate (victim) ipratropium 0.5 μM in cocktail): 9.37 ± 0.83 µM
IC50 (human OCT1 (hOCT1) [8]; IC50 for inhibition of methylnaltrexone uptake, substrate (victim) methylnaltrexone 1 μM in cocktail): 14.7 ± 1.95 µM
IC50 (human OCT1 (hOCT1) [8]; IC50 for inhibition of sumatriptan uptake, substrate (victim) sumatriptan 0.5 μM in cocktail): 16.8 ± 2.03 µM
IC50 (human OCT1 (hOCT1) [8]; IC50 for inhibition of zolmitriptan uptake, substrate (victim) zolmitriptan 0.5 μM in cocktail): 10 ± 1.59 µM

C=C[C@H]1C[N@@]2CC[C@H]1C[C@@H]2[C@@H](O)c1ccnc2ccc(OC)cc12 [Quinidine, quinidine]
DDI risk R, victim drug trospium (mouse OCT1 [9]): 1.23
Imax, portal [3]: 6908 ng/mL
ka [3]: 1.36 h⁻¹
IC50 (OCT1 [10]): 7.7 µM
cmax = Imax [5]: 1300 ng/mL
fraction unbound [5]: 0.13
tmax [5]: 2.00 h
zolmitriptan uptake inhibited more potently than sumatriptan uptake (human OCT1 (hOCT1) [8]): 2.9 fold

Source: PMC12163485 (Drug Metabolism and Disposition, 2025)
